Data on 58 compounds can be found in the METLIN SMRT retention time set (Domingo-Almenara et al. 2019).

This data set is described as follows: gradient 5% acetonitrile 3 min, to 50% in 2 min, to 85% in 15 min, held 3 min, 100 µL/min. To be noted: column: Zorbax Extend-C18 2.1 x 50 mm; eluents: water / acetonitrile, 0.1% formic acid. In short, it runs like this:
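Pure standards were run in mixtures of ~100 molecules by HPLC coupled to a quadrupole time-of-flight mass spectrometer. The column was a Zorbax Extend-C18 (2.1 × 50 mm, 1.8 μm) at 100 μL/min, with water and acetonitrile each containing 0.1% formic acid, in positive and negative ionization mode. Dead and dwell volumes were 40 μL and 900 μL. Retention time was taken from computationally picked adduct peaks, each manually inspected, with data collected over 3 months.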
Regarding `CN1C(=O)CCc2cc(NS(=O)(=O)c3ccccc3C(F)(F)F)ccc21`, the RP-LC retention time was 779 s.

With `O=C(Nc1ncn[nH]1)c1ccccc1`, the RP-LC retention time was determined as 646 s. For the compound `COCCCNC(=O)c1c(C)sc2ccn(Cc3ccc(F)cc3)c(=O)c12`, the RP-LC retention time was found to be 746 s. `Cc1noc(C)c1-c1ccc(S(=O)(=O)NC2CC2)cc1` returned an RP-LC retention time of 786 s. For the compound `O=C(CC1CCCC1)Nc1nc(-c2cccc3ccccc23)cs1`, the RP-LC retention time was 1220 s.

Compound `Cc1ccc(-c2csc(NC(=O)CSc3nnc(-c4cc5ccccc5o4)n3C)n2)cc1` came in with an RP-LC retention time of 1050 s. To `COc1ccc2c(c1)C1(CCN(C(=O)c3ccccc3OC)C1)C(=O)N2` (stereo not drawn) belongs 709 s.

For `Cc1cc2nn(CC(=O)N3CCC(C)CC3)c(=O)n2c(Nc2ccc(F)cc2)n1`, the RP-LC retention time turned out to be 990 s. For `CCC(=O)N1CCCc2cc(NC(=O)c3ccco3)ccc21` the value was 725 s. In turn, `COc1ccc(Cl)cc1NC(=O)Nc1ccc2c(c1)CN(C(=O)C1CC1)CC2` came in with an RP-LC retention time of 871 s. For `CC(C)(C)NC(=O)Cn1ccn2nc(-c3ccccc3)c(CO)c2c1=O` the value was 721 s; for `CCCn1ccc2sc(C)c(C(=O)NC3CCCC3)c2c1=O`, 760 s.

In turn, `COCc1nncn1C1CCN(S(=O)(=O)c2ccccc2Cl)CC1` yielded an RP-LC retention time of 697 s. On to `C[C@@H]1O[C@@H](O[C@H]2[C@H](Oc3cc(O)c(C(=O)CCc4ccc(O)cc4)c(O)c3)O[C@H](CO)[C@@H](O)[C@@H]2O)[C@H](O)[C@H](O)[C@H]1O`, for which the RP-LC retention time was 650 s. For `CCc1ccccc1N(CC)C(=O)C1CCCN(c2ncnc3c2nc2n3CCCCC2)C1` (stereo not drawn), the RP-LC retention time is 964 s. To `COc1cc(C(=O)OC(C)CN2CCOCC2)cc(OC)c1OC` (stereo not drawn) belongs 662 s.

In turn, `CCOC(=O)c1sc(NC(=O)c2cn(CC)c3nc(C)ccc3c2=O)nc1C` had an RP-LC retention time of 1040 s. As for `COc1ccccc1N1CCN(C(=O)C2CCCN(c3nccc4sc(C)cc34)C2)CC1` (stereo not drawn), the RP-LC retention time was determined as 711 s.

Take `CCOCCCNC(=O)CCCN1C(=O)CCn2nc(C)cc21`: the RP-LC retention time worked out at 568 s.

As for `CCCCCn1c(=O)c2ccccc2n(Cc2nc(-c3cc(OC)c(OC)c(OC)c3)no2)c1=O`, the RP-LC retention time turned out to be 646 s. In turn, `Cc1ccc(NC(=O)Nc2nc3ccccc3s2)cc1NC(=O)Nc1nc2ccccc2s1` had an RP-LC retention time of 1040 s.

Consider `OC(CN1CCN(c2ccccc2Cl)CC1)c1ccc2c(c1)OCO2` (stereo not drawn), for which the RP-LC retention time stood at 670 s.

As for `Cc1ccc(-n2c(N3CCCC(C(=O)Nc4ccc(C)c(F)c4)C3)nc3ccsc3c2=O)cc1` (stereo not drawn), the RP-LC retention time was found to be 1070 s. With `CCOc1ccc(NC(=O)c2cn(-c3cc(N4CCC(C)CC4)ncn3)cn2)cc1`, the RP-LC retention time was determined as 1110 s. With `Cc1ccc(N2CCC(NC(=O)NC(C)(C)C)C2=O)cc1` (stereo not drawn), the RP-LC retention time amounted to 761 s. For `CC1CCN(C(=O)CN2C(=O)COc3ccc(C(=O)N4CCCC4)cc32)CC1` the value was 698 s; for `O=C(CSc1nnc2c3cc(-c4ccc(F)cc4)nn3ccn12)Nc1ccc(F)cc1F`, 891 s. For `Cc1noc(C)c1-c1ccc(S(=O)(=O)N2CCN(C)CC2)cc1` the value was 610 s; for `Cn1ncc2c3ccccc3n(CC(=O)NCCCN3CCN(Cc4ccccc4)CC3)c2c1=O`, 597 s. As to `CC1=C(C(=O)N(CC(=O)NCCc2ccccc2)c2ccc(Cl)cc2)SCCO1`, the RP-LC retention time came to 956 s. To `Cc1cc(C)n(CC(=O)N2CCCCC2c2nc(C3CC3)no2)n1` (stereo not drawn) belongs 741 s. For `CCCNC(=O)N1CCCN(C2=NS(=O)(=O)C(c3cccc(Cl)c3)=C2C)CC1` the value was 775 s. To `COc1ccc(Cn2nc3c(S(=O)(=O)N4CCCC4)cccn3c2=O)cc1` belongs 804 s; to `Cc1sc2ncnc(N3CCCC(C)C3)c2c1C(=O)Nc1ccc(Cl)cc1` (stereo not drawn), 1290 s.

On to `COCCNC(=O)C(C)n1nc(C)c2c(C)n(-c3ccccc3)nc2c1=O` (stereo not drawn), for which the RP-LC retention time is 695 s. Compound `O=C(c1cn(-c2cc(N3CCSCC3)ncn2)cn1)N1CCN(c2ccccn2)CC1` returned an RP-LC retention time of 624 s. To `Cc1ccc(C)c(S(=O)(=O)Nc2ccc(N3CCN(c4ccccn4)CC3)c(C(=O)O)c2)c1` belongs 660 s; to `COc1cc(NC(=O)c2cnn(-c3ccc(Br)cc3)c2)cc(OC)c1OC`, 931 s; to `O=C(Cn1ccc2ccc(N3CCOCC3)nc21)NCc1ccc2c(c1)OCO2`, 791 s.

On to `O=C(Cn1ccc2sccc2c1=O)NCc1ccccc1`, for which the RP-LC retention time was determined as 696 s. To `COc1ccc(-c2cc(N3CCN(C(=O)COc4ccc(Cl)cc4)CC3)ncn2)cc1` belongs 738 s; to `O=S(=O)(c1ccc(-c2noc(-c3ccc(F)cc3)n2)cc1)N1CCOCC1`, 1050 s; to `Cc1nnc(-c2cn(CC(=O)Nc3ccccc3Br)c3ccccc23)o1`, 829 s.

`COc1cccc(-c2cc(=O)n3c4ccccc4n(CC(=O)Nc4ccc5c(c4)OCO5)c3n2)c1` yielded an RP-LC retention time of 924 s.

Compound `CC(NC(=O)c1cn(C)c2ncccc12)c1cccnc1` (stereo not drawn) returned an RP-LC retention time of 555 s. For `CCCCS(=O)(=O)c1cc2c(cc1NC(=O)c1ccccc1)n(C)c(=O)n2C` the value was 887 s; for `COc1ccc(OC)c(NC(=O)N2CCN(c3nc4ccccc4nc3C(F)(F)F)CC2)c1`, 1070 s; for `CC1CCCCN1CCCNC(=O)CN1C(=O)CSc2cccn2-c2ccccc21` (stereo not drawn), 651 s. To `COc1cccc(CNC(=O)C2(C)CCCN(S(=O)(=O)c3ccc(Cl)cc3)C2)c1` (stereo not drawn) belongs 932 s; to `CCOC(=O)c1c(CN(C)C)n(C)c2cc(C#N)c(O)cc12`, 598 s; to `CCOc1cc(-c2nc(C3CC(=O)N(c4ccc(C)cc4)C3)no2)cc(OCC)c1OCC` (stereo not drawn), 1150 s.

In turn, `Cc1ccc(-n2c(-c3ccc(Cl)cc3)cn3c4c(=O)n(C)c(=O)n(C)c4nc23)c(C)c1` showed an RP-LC retention time of 1110 s. `COc1ccc(CNC(=O)c2ccc(CN3CC(=O)N4CCCCC4C3=O)cc2)cc1` (stereo not drawn) displayed an RP-LC retention time of 683 s. As to `O=C(NC1CCN(c2nnc3ccccn23)CC1)c1ccc2c(c1)OCO2`, the RP-LC retention time was 628 s. `O=C(CS(=O)Cc1cnn(-c2ccccc2)c1-n1cccc1)NCc1cccc(F)c1` (stereo not drawn): the RP-LC retention time amounted to 838 s. Take `O=C(Cn1cc(S(=O)(=O)Cc2ccccc2F)c2ccccc21)NCC1CCCO1` (stereo not drawn): the RP-LC retention time came to 806 s.

Take `COc1ccc(C(=O)N2CCc3nc(CNC(=O)C4CCC4)n(C)c3C2)cc1`: the RP-LC retention time came out at 516 s. For `CNC(=O)c1sc2nc(-c3ccccc3)c(NCCCOC)n2c1C` the value was 684 s.
